# Experimental data published in the NIST ThermoML archive (doi:10.1021/acs.jced.8b01250).
# Numbers after ± are expanded uncertainties.
# Columns and labels:
# [1] = Molar enthalpy of transition or fusion; conditions: Crystal; DSC
# [2] = Crystal; DSC
smiles,measurement,setting,value
N#Cc1cccc([N+](=O)[O-])c1C#N [3-nitrophthalonitrile],Molar enthalpy of transition or fusion,[1],4.59 ± 0.194 kcal/mol
same,Triple point temperature,[2],435.55 ± 1.2 K
